Measurements published in US20260132123A1, “ABAD INHIBITOR COMPOUNDS” (UNIVERSITY COURT OF THE UNIVERSITY OF ST ANDREWS, priority 2021, published 2026).

What was measured:
mtsABAD HEK293 cells [1] = assay: Alamar Blue cell viability assay; assay type: cell-based, human; settings: 50 μM compound
Experimental: Cell viability was assessed via fluorescence change using the commercially available Alamar Blue from ThermoFisher. HEK293 cells overexpressing mts17β-HSD10 were cultured in phenol-red free media (10% FBS, 1 mM sodium pyruvate, 100 units penicillin, 0.1 mg/mL streptomycin and 2 mM L-glutamine) and seeded at a density of 10,000 cells per well (100 μL, 96 well plates). […] Treated cells were then incubated at 37° C. and CO2 (5%) for 24 hours before the assay was performed as per the manufacturer's instructions. Fluorescence was measured at 530 nm excitation and 590 nm emission using a SpectraMaxM2e spectrophotometer.

17β-HSD10 = target: T1, 17β-HSD10 (Homo sapiens, UniProt Q99714); assay: 17β-HSD10 (ABAD) enzyme inhibition assay, NADH oxidation read at 340 nm (primary screen and dose response); assay type: biochemical; settings: for EC50 / Max. Effect (%) / Hill Slope / Max. Fit / Min. Fit: recombinant 17βHSD10 enzyme assay; for Hill Slope / Max. Fit / Min. Fit: curve fit
T1 construct: Histev (histidine tag with TEV site) (N, cleaved yes); made in house; host or cells: E. coli BL21-CodonPlus
T1 sequence (Q99714 1-261): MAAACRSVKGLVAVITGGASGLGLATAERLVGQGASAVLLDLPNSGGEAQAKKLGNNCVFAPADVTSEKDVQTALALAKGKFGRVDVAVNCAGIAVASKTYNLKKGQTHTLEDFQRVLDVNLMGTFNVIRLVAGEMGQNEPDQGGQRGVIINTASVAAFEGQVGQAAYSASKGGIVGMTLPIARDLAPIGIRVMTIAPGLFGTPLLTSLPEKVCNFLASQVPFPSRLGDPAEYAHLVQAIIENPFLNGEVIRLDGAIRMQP
Outline: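 Tag-cleaved recombinant human 17β-HSD10 (2.5 nM) preincubated 15 min with compound in Tris pH 7.4, NaCl, DTT, Tween, BSA (catalase in some runs), then 100 μM acetoacetyl-CoA and NADH added. NADH oxidation by A340 fall: 35 min endpoint for screening at 10 μM; continuous 45 min for dose response.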

mtsABAD HEK293 cells [2] = assay: Lactate dehydrogenase (LDH) cytotoxicity assay; assay type: cell-based, human; settings: 50 μM compound
Experimental: Cell cytotoxicity was assessed via the measurement of lactate dehydrogenase leakage into the culture medium using a commercially available kit from Pierce (Thermo Scientific cat no. 88953). This was carried out in accordance with the kit guidelines, with the activity of Lactate Dehydrogenase (LDH) being calculated from the change in absorbance at […] as NADH is reduced. HEK293 cells overexpressing mts17β-HSD10 were cultured in phenol-red free media (10% fetal bovine serum (FBS), 1 mM sodium pyruvate, 100 units penicillin, 0.1 mg/mL streptomycin and 2 mM L-glutamine) and seeded at a density of 10,000 cells per well (100 μL, 96 well plates). […] Treated cells were incubated at 37° C. and CO2 (5%) for 24 hours before the LDH assay was performed as per the manufacturer's instructions. Spontaneous control (water) and maximum control (lysis buffer) used in accordance with the kit guide. Absorbance was measured at 490 nm and 680 nm using a SpectraMaxM2e spectrophotometer. The measured LDH activity was used to calculate % cytotoxicity using the following equation: […]

Compound | IC50 (17β-HSD10; 17β-HSD10 dose response / inhibition assay, read-out: 17β-HSD10 pIC50 (converted)) | figure in brackets after the pIC50 bound (17β-HSD10; Table 3, equals Max. Effect (%) of Table 6) | EC50 (17β-HSD10) | Max. Effect (%) (17β-HSD10) | Hill Slope (17β-HSD10) | Max. Fit (17β-HSD10) | Min. Fit (17β-HSD10) | 17β-HSD10 / ABAD activity in words (SAR discussion) (17β-HSD10) | Alamar Blue % Viability (50 μM Dose) (mtsABAD HEK293 cells [1]) | LDH % Toxicity (50 μM Dose) (mtsABAD HEK293 cells [2]) | Alamar Blue % Viability (50 μM Dose) (mtsABAD HEK293 cells [1]; listed as ESC1002206-01) | LDH % Toxicity (50 μM Dose) (mtsABAD HEK293 cells [2]; listed as ESC1002206-01)
COc1ccc(-c2ccccc2[C@@H]2CCCN2C(=O)c2sccc2C)cn1 (single isomer, unassigned) [ESC1002161] | > 20 µM | 7 | > 20 µM | 7% | – | – | – | – | 92.566% | 4.783% | – | –
CC(C)CN(C(=O)c1ccccc1F)c1cccc(N(C)Cc2ccn[nH]2)c1 [ESC1002206] | – | – | – | 79% | 0.93 | 107 | 0 | – | – | – | 95.609% | 5.918%
COCCN(C(=O)c1ccccc1F)c1cccc(N(C)Cc2c[nH]cn2)c1 [ESC1002266, 2-fluoro-N-[3-[1H-imidazol-4-ylmethyl(methyl)amino]phenyl]-N-(2-methoxyethyl)benzamide] | – | – | 6.46 µM | 74% | 0.98 | 100 | −4 | – | 89.86% | 5.22% | – | –
COc1ccc(-c2ccccc2[C@@H]2CCCN2C(=O)c2sccc2C)cc1 (single isomer, unassigned) [ESC1002332] | – | – | 0.166 µM | 99% | 1 | 100 | 0 | – | 87.68% | 3.52% | – | –
CC(C)CN(C(=O)c1ccccc1F)c1cccc(N(C)Cc2cn[nH]c2)c1 [ESC1002205-02] | – | – | – | – | – | – | – | – | 89.638% | 5.243% | – | –
COc1ccc(-c2ccccc2[C@H]2CCCN2C(=O)c2sccc2C)cc1 (single isomer, unassigned) [ESC1002331] | – | – | – | – | – | – | – | – | 88.56% | 5.88% | – | –
O=C(c1sccc1Cl)N1CCC[C@H]1c1ccccc1-c1cccc(O)c1F (single isomer, unassigned) [ESC1002841] | – | – | > 20 µM | 27% | – | – | – | – | – | – | – | –
COc1ccccc1C(=O)N(CC(C)C)c1cccc(N(C)Cc2c[nH]cn2)c1 [ESC1002458] | – | – | 0.55 µM | 96% | 1 | 97 | −7 | – | – | – | – | –
O=C(c1sccc1Cl)N1CCC[C@H]1c1ccccc1-c1ccnc(O)c1 (racemic) [ESC1002697] | – | – | > 20 µM | 43% | – | – | – | less active | – | – | – | –
CC(C)CN(C(=O)c1ccccc1F)c1cccc(NCc2c[nH]c(C(C)C)n2)c1 [ESC1002632] | – | – | > 20 µM | 18% | – | – | – | – | – | – | – | –
COc1cccc(-c2ccccc2[C@H]2CCCN2C(=O)Cc2ccccc2)c1 [ESC1002506] | – | – | > 20 µM | 8% | – | – | – | – | – | – | – | –
O=C(c1ncco1)N1CCC[C@H]1c1ccccc1 [S1−T9, 2-{[(2S)-2-phenylpyrrolidin-1-yl]carbonyl}-1,3-oxazole] | – | – | > 20 µM | 26.6% | – | – | – | – | – | – | – | –
COc1cccc(-c2ccccc2[C@@H]2CCCN2C(=O)c2cn[nH]c2)c1 (racemic) [ESC1002601] | – | – | 6.31 µM | 82% | 0.74 | 115 | −7 | – | – | – | – | –
O=C(c1cocn1)N1CCC[C@H]1c1ccccc1 [S1−T10, 4-{[(2S)-2-phenylpyrrolidin-1-yl]carbonyl}-1,3-oxazole] | – | – | > 20 µM | 20.5% | – | – | – | – | – | – | – | –

Further lines, with some results ahead:

IC50 (17β-HSD10; 17β-HSD10 dose response / inhibition assay, read-out: 17β-HSD10 pIC50 (converted)) | figure in brackets after the pIC50 bound (17β-HSD10; Table 3, equals Max. Effect (%) of Table 6) | EC50 (17β-HSD10) | Max. Effect (%) (17β-HSD10) | Hill Slope (17β-HSD10) | Max. Fit (17β-HSD10) | Min. Fit (17β-HSD10) | 17β-HSD10 / ABAD activity in words (SAR discussion) (17β-HSD10) | Compound | Alamar Blue % Viability (50 μM Dose) (mtsABAD HEK293 cells [1]) | LDH % Toxicity (50 μM Dose) (mtsABAD HEK293 cells [2]) | Alamar Blue % Viability (50 μM Dose) (mtsABAD HEK293 cells [1]; listed as ESC1002206-01) | LDH % Toxicity (50 μM Dose) (mtsABAD HEK293 cells [2]; listed as ESC1002206-01)
– | – | 0.525 µM | 99% | 1.4 | 97 | 7 | – | Cc1ccsc1C(=O)N1CCC[C@H]1c1ccccc1-c1cccc(C)c1C [ESC1002339] | 82.52% | 4.39% | – | –
– | – | 9.12 µM | 67% | 1 | 96 | 0 | – | CC(C)CN(C(=O)c1ccccc1F)c1cccc(N(C)Cc2cn(C)cn2)c1 [ESC1002200] | 79.220% | 5.136% | – | –
– | – | 0.263 µM | 105% | 0.92 | 102 | 4 | – | Cc1ccsc1C(=O)N1CCC[C@H]1c1ccccc1-c1cccc(Cl)c1 [ESC1002321] | 84.52% | 5.98% | – | –
– | – | 1.45 µM | 89% | 0.84 | 100 | −7 | – | Cc1ccsc1C(=O)N1CCC[C@H]1c1ccccc1-c1ccc(Cl)c(C(F)(F)F)c1 [ESC1002327] | 90.36% | 4.61% | – | –
– | – | > 20 µM | 26.5% | – | – | – | – | Cc1cn[nH]c1C(=O)N1CCC[C@H]1c1ccccc1 [S1−T1, 4-methyl-5-{[(2S)-2-phenylpyrrolidin-1-yl]carbonyl}-1H-pyrazole] | – | – | – | –
– | – | 0.0513 µM | 99% | 1.2 | 97 | 0 | – | O=C(c1sccc1Cl)N1CCC[C@H]1c1ccccc1-c1ccc(F)c(O)c1 (single isomer, unassigned) [ESC1002838] | – | – | – | –
– | – | 5.5 µM | 79% | 0.98 | 101 | −1 | – | C#CCN(C)c1cccc(N(CC(C)C)C(=O)c2ccccc2F)c1 [ESC1002636] | – | – | – | –
– | – | 0.398 µM | 93% | 1.4 | 92 | −2 | – | COc1cc(-c2ccccc2[C@@H]2CCCN2C(=O)c2sccc2Cl)ccc1C (racemic) [ESC1002700] | – | – | – | –
– | – | 0.0513 µM | 100% | 1.2 | 96 | −1 | – | O=C(c1sccc1Cl)N1CCC[C@H]1c1ccccc1-c1cc(O)cc(F)c1 (single isomer, unassigned) [ESC1002801] | – | – | – | –
– | – | 0.479 µM | 96% | 1.1 | 95 | −8 | – | COc1cccc(-c2ccccc2[C@H]2CCCN2C(=O)c2cccs2)c1 [ESC1002425] | – | – | – | –
– | – | 0.447 µM | 95% | 1.4 | 94 | −4 | – | CC(C)CN(C(=O)c1ccccc1Cl)c1cccc(N(C)Cc2c[nH]cn2)c1 [ESC1002457, 2-chloro-N-[3-[1H-imidazol-4-ylmethyl(methyl)amino]phenyl]-N-isobutyl-benzamide] | – | – | – | –
– | – | 0.603 µM | 95% | 1 | 97 | −3 | – | COc1cc(-c2ccccc2[C@@H]2CCCN2C(=O)c2sccc2Cl)ccn1 (racemic) [ESC1002665] | – | – | – | –
– | – | 0.0407 µM | 99% | 1 | 96 | −1 | – | O=C(c1sccc1Cl)N1CCC[C@H]1c1ccccc1-c1cc(O)cc(F)c1 (racemic) [ESC1002776] | – | – | – | –
– | – | > 20 µM | 0% | – | – | – | potency was abolished | O=C(c1ccccc1F)N1CCCc2ccc(NCc3cnc[nH]3)cc21 [ESC1002081, (2-fluorophenyl)-[7-(1H-imidazol-5-ylmethylamino)-3,4-dihydro-2H-quinolin-1-yl]methanone] | – | – | – | –
– | – | 0.186 µM | 97% | 1.6 | 95 | 11 | – | COc1cccc(-c2ccccc2[C@@H]2CCCN2C(=O)c2sccc2C)c1 (single isomer, unassigned) [ESC1002421] | – | – | – | –
– | – | 0.0589 µM | 99% | 1.1 | 98 | 0 | – | O=C(c1sccc1Cl)N1CCCC1c1ccccc1-c1cccc(O)c1 (racemic) [ESC1002666, (3-chlorothiophen-2-yl)(2-(3′-hydroxy-[1,1′-biphenyl]-2-yl)pyrrolidin-1-yl)methanone] | – | – | – | –
